The record followed here is patent US20100069347A1, “HETEROCYCLYL-SUBSTITUTED ANTI-HYPERCHOLESTEROLEMIC COMPOUNDS” (priority 2006, published 2010).

One may read the melting point as the temperature, or range, at which the solid turns liquid.

One data set concerns cholesterol absorption. In words: Cholesterol Absorption Assay in Rat. In kind it is in vivo. As to conditions: CD male rats, oral dosing, at the highest dose tested (0.0003 to 1 mg/kg); [3H]-cholesterol counts in liver and plasma. On the procedure:
Compounds of this invention were determined to inhibit cholesterol absorption employing the Cholesterol Absorption Assay in Rat, below. This assay involves comparing a test compound to ezetimibe with respect to their ability to inhibit cholesterol absorption in rat.
Cholesterol Absorption Assay in Rats: CD male rats (n=5/group), aged 5 weeks, were dosed orally with 0.5 ml 0.25% methyl cellulose solution with or without test compound or ezetimibe (0.0003 to 1 mg/kg). 0.5 to 16 hrs later all of the rats were dosed orally with 0.5 ml INTRALIPID® containing 5 μCi [^3H]-cholesterol per rat. Five hours later, the animals were euthanized, and liver and blood were collected. Cholesterol counts in liver and plasma were determined, and percent inhibition of cholesterol absorption was calculated.

Turning to `O=C1[C@H](CC[C@H](O)c2ccc(F)cc2)[C@@H](c2ccc(CCC(O)(CO)CO)cc2)N1c1ccc(CCc2nc[nH]n2)cc1` [Example 2, (3R,4S)-4-{4-[3,4-dihydroxy-3-(hydroxymethyl)butyl]phenyl}-3-[(3S)-3-(4-fluorophenyl)-3-hydroxypropyl]-1-{4-[2-(1H-1,2,4-triazol-5-yl)ethyl]phenyl}azetidin-2-one], the melting point was 104 °C.

With `O=C1[C@H](CC[C@H](O)c2ccc(F)cc2)[C@@H](c2ccc(O)cc2)N1c1ccc(F)cc1` [ezetimibe, Ezetimibe], the “inhibition of cholesterol absorption” value in the data set on cholesterol absorption is greater than 90%.
